The values that follow come from patent publication US4642341A, “Carbapenem antibiotics” (priority 1985, dated 1987).

Each structure is given as a SMILES string. Values after ≈ are worked out from the molar mass of the structure shown. Where two headings read alike, the source gives them in different places.

For orientation: half-life means how long it takes for the measured level to halve. The term AUC denotes the area under the concentration-time curve, a measure of exposure. Read a low AUC as low exposure. For orientation: NOAEL means the highest tested level that showed no adverse finding. As a reminder, the LD50 is the dose expected to kill half of the subjects tested.

The subject of data set [1] is various Pseudomonas species. As to conditions: cited from earlier work.
For another data set, the system named is S. pneumoniae A-9585. Briefly: Minimum Inhibitory Concentration, tube dilution. Type of data set: cell-based. As to conditions: Streptococcus pneumoniae, A9585, overnight 37° C.
The next data set has as its system S. pyogenes A-9604. Briefly: Minimum Inhibitory Concentration, tube dilution. The data set is classed as cell-based. The conditions noted are these: Streptococcus pyogenes, A9604, overnight 37° C.
The next data set has as its system S. aureus A-9537. Nature of the data set: Minimum Inhibitory Concentration, tube dilution. The data set is classed as cell-based. As to conditions: Staphylococcus aureus, read-out: MIC.
Data set [2] relates to S. aureus A-9606 (Pen-res.). Briefly: Minimum Inhibitory Concentration, tube dilution. Type of data set: cell-based. As to conditions: Staphylococcus aureus.
Data set [3] has as its system S. aureus A15097 (Meth-res.). Briefly: Minimum Inhibitory Concentration, tube dilution. The data set is classed as cell-based. The conditions noted are these: Staphylococcus aureus, table 6.
The next data set has as its system S. faecalis A20688. Briefly: Minimum Inhibitory Concentration, tube dilution. The data set is classed as cell-based. The conditions noted are these: Enterococcus faecalis.
Data set [4] concerns K. pneumoniae A-9664. Briefly: Minimum Inhibitory Concentration, tube dilution. The data set is classed as cell-based. As to conditions: Klebsiella pneumoniae, A9664, overnight 37° C.; table 6.
The test system of data set [5] is P. mirabilis A-9900. Briefly: Minimum Inhibitory Concentration, tube dilution. The data set is classed as cell-based. The conditions noted are these: Proteus mirabilis, A9900, overnight 37° C.; table 6.
For another data set, the system named is P. vulgaris A21559. Nature of the data set: Minimum Inhibitory Concentration, tube dilution. The conditions noted are these: Proteus vulgaris, A21559, overnight 37° C. The data set is classed as cell-based.
The next data set concerns S. marcescens A20019. Nature of the data set: Minimum Inhibitory Concentration, tube dilution. The data set is classed as cell-based. As to conditions: Serratia marcescens, A20019, overnight 37° C.; table 6.
For data set [6], the system named is P. aeruginosa A-9843A. Nature of the data set: Minimum Inhibitory Concentration, tube dilution. Type of data set: cell-based. The conditions noted are these: Pseudomonas aeruginosa, A9843A.
In the next data set the test system is P. aeruginosa A21213. Nature of the data set: Minimum Inhibitory Concentration, tube dilution. The data set is classed as cell-based. The conditions noted are these: Pseudomonas aeruginosa, A21213, overnight 37° C.; table 6; read-out: MIC.
In another data set the test system is M. morganii A15153. Nature of the data set: Minimum Inhibitory Concentration, tube dilution. The data set is classed as cell-based. The conditions noted are these: Morganella morganii, A15153, overnight 37° C.; table 6.
Another data set has as its system P. mirabilis A9900. Nature of the data set: Protective effect, intramuscular treatment of infected mice (table 8). The data set is classed as in vivo. As to conditions: Proteus mirabilis, A9900, im; i.m. 0 and 2 h post-infection; 4×10^7 organisms i.p.; read-out: PD50 /treatment.
A further data set has as its system P. aeruginosa A9843A. Nature of the data set: animal or person. The data set is classed as in vivo, mice. As to conditions: Pseudomonas aeruginosa, in Mus musculus, im, read-out: PD50 /treatment.
A short description of data set [7]: Half-life in phosphate buffer pH 7.4. Type of data set: physicochemical. The conditions noted are these: phosphate buffer. The procedure, abridged:
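Compound at 10^-4 M in phosphate buffer pH 7.4 at 36.8° C; τ1/2 reported from this incubation.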

In another data set the test system is E. coli A15119. Nature of the data set: Minimum Inhibitory Concentration, tube dilution. Type of data set: cell-based. As to conditions: Escherichia coli, A15119, 10^-4 dil.
Another data set has as its system E. coli A20341-1. Nature of the data set: Minimum Inhibitory Concentration, tube dilution. Type of data set: cell-based. The conditions noted are these: Escherichia coli, A203411, 10^-4.
The next data set deals with P. rettgeri A22424. Briefly: Minimum Inhibitory Concentration, tube dilution. The data set is classed as cell-based. The conditions noted are these: Providencia rettgeri, overnight 37° C., read-out: MIC.
The next data set deals with H. influenzae A-9833. Briefly: Minimum Inhibitory Concentration, tube dilution. Type of data set: cell-based. As to conditions: Haemophilus influenzae, A9833.
A further data set has as its system H. influenzae A20178. Nature of the data set: Minimum Inhibitory Concentration, tube dilution. As to conditions: Haemophilus influenzae, overnight 37° C. The data set is classed as cell-based.
Another data set deals with H. influenzae A21518. Nature of the data set: Minimum Inhibitory Concentration, tube dilution. The data set is classed as cell-based. The conditions noted are these: Haemophilus influenzae, overnight 37° C.
The test system of a further data set is H. influenzae A21522. Briefly: Minimum Inhibitory Concentration, tube dilution. The data set is classed as cell-based. As to conditions: Haemophilus influenzae, overnight 37° C.
For the next data set, the system named is B. fragilis A22696. Nature of the data set: Minimum Inhibitory Concentration, tube dilution. The data set is classed as cell-based. As to conditions: Bacteroides fragilis, overnight 37° C., read-out: MIC.
In a further data set the test system is S. aureus A-9606. Nature of the data set: Protective effect, intramuscular treatment of infected mice. The conditions noted are these: Staphylococcus aureus, A9606, im; i.m.; challenge 1 × 10^9; read-out: PD50 /Treatment. The data set is classed as in vivo.
Data set [8] relates to K. pneumoniae A-9664. The description is as above. Type of data set: in vivo. As to conditions: Klebsiella pneumoniae, A9664, im; i.m.; challenge 7 × 10^6; read-out: PD50 /Treatment.
Method: (§1) The PD50 (dose in mg/kg required to give protection to 50% of the infected mice) is indicated.
(§2) Treatment Schedule: Mice were treated i.m. with drugs 0 and 2 hours
(§3) 3.5 hours (all others); 5 mice were used for each test.
The test system of a further data set is P. rettgeri A15167-2. Described as above. The data set is classed as in vivo. The conditions noted are these: Providencia rettgeri, A151672, im; i.m.; challenge 3 × 10^7; read-out: PD50 /Treatment.
The next data set relates to M. morganii A15149. The data set is described as above. The data set is classed as in vivo. As to conditions: Morganella morganii, A15149, im; i.m.; challenge 7 × 10^5; read-out: PD50 /Treatment.
Another data set relates to S. marcescens A20335. Described as above. The data set is classed as in vivo. As to conditions: Serratia marcescens, A20335, im; i.m.; challenge 9 × 10^6; read-out: PD50 /Treatment.
Data set [9] concerns P. aeruginosa A-9843a. The data set is described as above. The data set is classed as in vivo. As to conditions: Pseudomonas aeruginosa, A9843A, im; challenge 3 × 10^4; Historical data; read-out: PD50 /Treatment.
Method: as §1, §2, §3
In another data set the test system is P. aeruginosa A20481. Described as above. The data set is classed as in vivo. The conditions noted are these: Pseudomonas aeruginosa, A20481, im; i.m.; challenge 3 × 10^4; read-out: PD50 /Treatment.
The subject of the next data set is P. aeruginosa A20599. Described as above. The data set is classed as in vivo. As to conditions: Pseudomonas aeruginosa, A20599, im; i.m.; challenge 9 × 10^4; read-out: PD50 /Treatment.
Data set [10] can be described thus: Blood levels in mice after intramuscular administration. Type of data set: in vivo. As to conditions: mouse, im, 20 mg/kg i.m. The text has this: a single test; 4 mice used per compound.
A short description of data set [11]: Urinary recovery in mice after intramuscular administration. The data set is classed as in vivo. The conditions noted are these: mouse, urine, im, 20 mg/kg, 20 mg/kg i.m., read-out: Percentage of Dose Recovered (urine). The text has this: | a single test; 4 mice per compound.
The next data set can be described thus: in vivo. The conditions noted are these: mouse.
A further data set concerns E. cloacae A-9569. Briefly: animal or person. As to conditions: Enterobacter cloacae, A9569, in Mus musculus, im, read-out: PD50 /Treatment.
Data set [12] concerns P. mirabilis A-9900. Nature of the data set: animal or person. As to conditions: Proteus mirabilis, A9900, in Mus musculus, im, read-out: PD50 /Treatment, i.m.; challenge 4 × 10^6.
Method: as §1, §2, §3
Data set [13] is described as follows: Toxicity after intracranial administration to mice. The conditions noted are these: mouse, in vivo.

Method for E. cloacae A-9569: as §1, §2, §3
Method for M. morganii A15149: as §1, §2, §3
Method for P. aeruginosa A20481: as §1, §2, §3
Method for P. aeruginosa A20599: as §1, §2, §3
From the text for P. aeruginosa A9843A: as §1
From the text for P. mirabilis A9900: as §1
Method for P. rettgeri A15167-2: as §1, §2, §3
Method for S. marcescens A20335: as §1, §2, §3

With `C[C@@H](O)[C@H]1C(=O)N2C(C(=O)O)=C(SCCN)C[C@H]12` [Thienamycin, thienamycin], in data set [1], the “activity against various Pseudomonas species” value is reported as “notable activity”.

On to `C[C@@H](O)[C@H]1C(=O)N2C(C(=O)[O-])=C(SCC[n+]3cccc(N)c3)C[C@H]12` [Example 14, (5R, 6S)-3-[2-(3-aminopyridinio)ethylthio]-6-[1-(R)-hydroxyethyl]-7-oxo-1-azabicyclo[3.2.0]-hept-2-ene-2-carboxylate], for which the MIC in the data set with S. pneumoniae A-9585 (table 6) is 0.002 µg/mL (≈ 0.00572 µM); against S. pyogenes A-9604 (table 6) it was 0.004 µg/mL (≈ 0.0114 µM); in the data set with S. aureus A-9537 (A9537, 50% serum, table 6), 0.016 µg/mL (≈ 0.0458 µM); with S. aureus A-9537 (A9537, overnight 37° C., table 6), 0.008 µg/mL (≈ 0.0229 µM); in [2] (Pen-res, table 6), 0.008 µg/mL (≈ 0.0229 µM); in [3], 0.008 µg/mL (≈ 0.0229 µM). Moreover, the MIC was determined as 0.5 µg/mL (≈ 1.43 µM) with S. faecalis A20688 (A20688, overnight 37° C., table 6, read-out: MIC); 0.06 µg/mL (≈ 0.172 µM) against K. pneumoniae A-9664 [4]; 0.03 µg/mL (≈ 0.0859 µM) in the data set with P. mirabilis A-9900 [5]; 0.016 µg/mL (≈ 0.0458 µM) against P. vulgaris A21559 (table 6); 0.06 µg/mL (≈ 0.172 µM) against S. marcescens A20019; 2 µg/mL (≈ 5.72 µM) in the data set on P. aeruginosa A-9843A [6] (overnight 37° C., table 6, read-out: MIC). Further, the MIC in the data set on P. aeruginosa A21213 was 1 µg/mL (≈ 2.86 µM); against M. morganii A15153, 0.03 µg/mL (≈ 0.0859 µM). Besides, the values for the ED50 with P. mirabilis A9900 and with P. aeruginosa A9843A were 5.4 mg/kg and 0.78 mg/kg, respectively. In addition, in data set [7] (pH 7.4, t1/2 (half-life)), the half-life is 18.5 h.

As to `C[C@@H](O)[C@H]1C(=O)N2C(C(=O)[O-])=C(SCC[n+]3ccccc3)C[C@H]12` [Example 1, 3-[2-(1-Pyridinium)ethylthio]-6α-[1-(R)-hydroxyethyl]-7-oxo-1-azabicyclo (3.2.0)-hept-2-ene-2-carboxylate], the MIC with S. pneumoniae A-9585 is 0.002 µg/mL (≈ 0.00598 µM); with S. pyogenes A-9604, 0.008 µg/mL (≈ 0.0239 µM); in the data set with S. aureus A-9537 (A9537, + 50% serum) it was 0.03 µg/mL; with S. aureus A-9537 (A9537, overnight 37° C.) it was 0.008 µg/mL (≈ 0.0239 µM); in [2] (Pen-res.), 0.016 µg/mL (≈ 0.0478 µM); in the data set on S. faecalis A20688 (A20688), 0.5 µg/mL (≈ 1.5 µM). Also, the MIC worked out at 0.03 µg/mL (≈ 0.0897 µM) in the data set with E. coli A15119; 0.03 µg/mL (≈ 0.0897 µM) in the data set with E. coli A20341-1; 0.03 µg/mL (≈ 0.0897 µM) against P. vulgaris A21559; 0.5 µg/mL (≈ 1.5 µM) in the data set with P. rettgeri A22424; 2 µg/mL (≈ 5.98 µM) with P. aeruginosa A-9843A [6]; 8 µg/mL (≈ 23.9 µM) in the data set on H. influenzae A-9833. In addition, the MIC with H. influenzae A20178 was 8 µg/mL (≈ 23.9 µM); with H. influenzae A21518 it was 8 µg/mL (≈ 23.9 µM); in the data set on H. influenzae A21522 it was 8 µg/mL (≈ 23.9 µM); with B. fragilis A22696, 0.5 µg/mL (≈ 1.5 µM). Moreover, the ED50 came out at 0.11 mg/kg with S. aureus A-9606; 7.7 mg/kg in the data set with K. pneumoniae A-9664 [8]; 5.7 mg/kg in the data set on P. rettgeri A15167-2; 4.4 mg/kg with M. morganii A15149; 3.3 mg/kg in the data set on S. marcescens A20335; 0.8 mg/kg with P. aeruginosa A-9843a [9]. Besides, the ED50 in the data set on P. aeruginosa A20481 is 0.8 mg/kg; in the data set on P. aeruginosa A20599 it was 3 mg/kg; in the data set on E. cloacae A-9569, 0.4 mg/kg; in the data set with P. mirabilis A-9900 [12], 19 mg/kg. Further, the AUC in data set [10] turned out to be 6400 ng·h/mL. In data set [10], this compound came in with a half-life of 9 min. In addition, the dose excreted at 3 h in [11] (0-3 hours) amounted to 23.3%. Also, the dose excreted at 24 h came to 24.2 ± 5.3% in [11] (0-24 hours) and 0.4% in [11] (6-24 hours). Also, the dose excreted at 6 h in data set [11] (3-6 hours) was found to be 0.5%. Besides, the half-life at 100 µM in [7] (pH 7.4, τ1/2 (half-life)) is 13.5 h. The NOAEL in “in vivo” is > 40 mg/kg. Further, the LD50 in data set [13] was > 40 mg/kg.
